Experimental findings from patent US20260283999A1, “STAT3 INHIBITOR TO TREAT SU[…]” (UNIVERSITY OF FLORIDA RESEARCH FOUNDATION, INCORPORATED, priority 2022, published 2026) are described below.

In assay [1] the test system is SAH model. Description: Cerebral blood flow by laser speckle perfusion imaging after SAH. The assay is classed as in vivo. The conditions noted are these: mice, 48 hours after SAH; 5 mg/kg repetitive dosing following SAH; FIG. 3. How it is done: (§1) Studies were conducted wherein repetitive dosing on days 1, 2, and 3 following SAH occurred with 5 mg/kg of the p-STAT3 inhibitor. […] The STAT inhibitor used in these studies was LLL12B.
The SAH model utilized modified autologous blood injection to basal cisterns adjacent to right anterior circulation. [Dodd W S, Noda I, Martinez M, Hosaka K, Hoh BL. NLRP3 inhibition attenuates early brain injury and delayed cerebral vasospasm after subarachnoid hemorrhage. J Neuroinflammation. 2021; 18 (1): 163.]. Briefly, mice we anesthetized with 10 mg/kg xylazine and 100 mg/kg ketamine prior to shaving/cleaning the scalp. The tail was prepped, shaved, and cleaned. The mouse's head was fixed to the stereotaxic frame and body temperature maintained at 37° C. using a heating pad. […] The mouse's respiratory rate was closely monitored. […]
Four mice per group were utilized. Cerebral blood flow was measured with a laser speckle perfusion imager at 48 hours after SAH. […] Sufficient readings were able to be achieved without bone flap removal. […] Average perfusion per animal was documented and an imaging voxel with a calculated mean of 9.7 was used to measure bilateral MCA territory perfusion. A ratio of right to left MCA perfusion was calculated for each animal to allow reliable comparisons between groups and to control for variance in baseline blood pressure differences. […]

In assay [2] the test system is SAH model. The assay is described as follows: Immunohistochemistry of brain slices after SAH (p-STAT3, Arg1, Cox2, iNOS, TLR-4). The assay is classed as in vivo. The conditions noted are these: mice, following SAH; 5 mg/kg on days 1, 2, and 3 following SAH. Here is the method: as §1
The SAH model utilized modified autologous blood injection to basal cisterns adjacent to right anterior circulation. [Dodd W S, Noda I, Martinez M, Hosaka K, Hoh BL. NLRP3 inhibition attenuates early brain injury and delayed cerebral vasospasm after subarachnoid hemorrhage. J Neuroinflammation. 2021; 18 (1): 163.]. Briefly, mice we anesthetized with 10 mg/kg xylazine and 100 mg/kg ketamine prior to shaving/cleaning the scalp. The tail was prepped, shaved, and cleaned. The mouse's head was fixed to the stereotaxic frame and body temperature maintained at 37° C. using a heating pad. The scalp was incised along the sagittal suture from bregma to the nasal bone. The skin was reflected and held in place by retraction. The burr hole was positioned 5.0 mm rostral to bregma and 0.5 mm right of midline. Next, 150 μL of arterial blood was drawn from the tail artery. 50 μL of blood was drawn up into a Hamilton syringe. The syringe needle was passed at a 30° caudal angle until it reached the skull base. The syringe was left in place and blood was manually injected at a rate of 10 μL/min. The mouse's respiratory rate was closely monitored. […]

Turning to `CN(C)C(=O)Oc1cccc2c1C(=O)c1cccc(S(N)(=O)=O)c1C2=O` [LLL12B], the cerebral blood flow result in assay [1] is reported as “protective benefit for cerebral blood flow showing decreased risk for ischemia”. Also, the “systemic neuroinflammation (immunochemistry)” value in assay [2] was “reduces systemic neuroinflammation”.
